Reference: patent US9307757B2, “Monoalkyl sulfosuccinates in pesticide formulations and applications” (AKZO NOBEL CHEMICALS INTERNATIONAL B.V., priority 2009, dated 2016)

Tests used:
[1] = Stability and uniformity of high-load glufosinate-ammonium formulation (FIG. 1); format: physicochemical; settings: 1:1 mixture glufosinate-ammonium active and ACAR 7053 (C8 ether sulfate adjuvant), hydrotrope present, FIG. 1C
Source text: The unique structure of the monoalkyl sulfosuccinates of structure (I) renders them the capability of compatibilizing or stabilizing the highly concentrated components in the pesticide/herbicide formulation. Such capability is best illustrated by the performance of monoalkylsulfosuccinates, particularly of sodium monobutyl sulfosuccinate in the high load glufosinate-ammonium formulations. In these formulations, the active loading is at the highest (280 g/l). As the active content increases, the adjuvant content increases and the water content is reduced. Consequently, there is not enough water to solubilize both the herbicide active and the adjuvant. Without the action of a hydrotrope, the two components would separate.
Without hydrotrope, the formulation is a hazy mixture when freshly mixed (FIG. 1A) that separates into two layers upon standing (FIG. 1B).

[2] = Designed experiment: percentage of separation of aqueous mixtures of pesticide, adjuvant and hydrotrope (FIG. 2 ternary diagram); format: physicochemical; settings: pesticide formulation containing AGAR 7053 as adjuvant
Source text: The performance of the sodium monobutyl sulfosuccinate as hydrotrope for pesticide formulation containing the AGAR 7053 as adjuvant was also confirmed by the results of a designed experiment.
The numbers associated with the small colored bar in the upper left hand corner of the Figure give the percentage of separation in the samples. The colors in the bar are related to the colored regions in the ternary diagram. As the regions in the graph go from red to blue the percentage of separation goes to zero.

appearance of formulation when freshly mixed [1]: clear
stability of formulation after prolonged standing [1]: retains that clarity and uniformity
SMILES: CCCCOC(=O)C(CC(=O)[O-])S(=O)(=O)O.[Na+] (stereo not drawn) [sodium monobutyl sulfosuccinate]
performance as hydrotrope (separation of samples) [2]: performed as a hydrotrope over a wide range of concentrations
